Assay results as given in US6010851A, “Method for producing nucleoside-5'-phosphate ester” (Ajinomoto Co., Inc., priority 1995, dated 2000).
Like-named read-outs stand apart in the source and are kept apart here.

Key:
[1] = biological target: T1, acid phosphatase derived from Morganella morganii (Morganella morganii, UniProt P28581); type: biochemical
T1 construct: homo-oligomer of about 25 kDa subunits; 20-residue signal peptide removed
T1 sequence (P28581 21-249): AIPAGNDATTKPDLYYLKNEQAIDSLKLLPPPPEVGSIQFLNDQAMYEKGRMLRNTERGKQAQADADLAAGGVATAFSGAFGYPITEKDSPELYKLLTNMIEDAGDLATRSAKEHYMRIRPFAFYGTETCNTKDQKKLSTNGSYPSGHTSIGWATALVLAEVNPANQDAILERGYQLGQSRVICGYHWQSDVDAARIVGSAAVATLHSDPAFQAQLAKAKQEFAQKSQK

[2] = biological target: T2, acid phosphatase derived from Escherichia blattae (Shimwellia blattae, UniProt I2BB71); type: biochemical, Escherichia blattae JCM 1650
T2 construct: homo-oligomer; 18-residue signal peptide removed
T2 sequence (I2BB71 19-249): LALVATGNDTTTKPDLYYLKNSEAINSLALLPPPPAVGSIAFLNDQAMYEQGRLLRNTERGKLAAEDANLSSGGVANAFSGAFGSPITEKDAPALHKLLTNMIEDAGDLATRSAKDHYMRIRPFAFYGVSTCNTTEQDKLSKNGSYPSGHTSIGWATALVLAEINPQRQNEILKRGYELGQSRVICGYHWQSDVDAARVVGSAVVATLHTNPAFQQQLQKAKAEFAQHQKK

[3] = system: Escherichia coli JM109/pEPI330; test: Production of various nucleoside-5'-phosphate esters by microbial cells of the mutant strain; type: cell-based; conditions: sodium pyrophosphate 12 g/dl, nucleoside 6 g/dl, cells 200 mg/dl dry weight, pH 4.0, 35° C., 32 hours
Text: (§1) Produced nucleotide contained only nucleoside-5'-phosphate ester. By-production of nucleoside-2'-phosphate ester and nucleoside-3'-phosphate ester was not observed at all.

[4] = system: Escherichia coli JM109/pMPI530; test: as above; type: cell-based; conditions: sodium pyrophosphate 12 g/dl, nucleoside 6 g/dl, cells 100 mg/dl dry weight, pH 4.0, 30° C., 22 hours
Text: as §1

[5] = biological target: T3, acid phosphatase sample derived from Morganella morganii (Morganella morganii, UniProt P28581); test: Phosphorylation reaction of various nucleosides by acid phosphatase sample; type: biochemical, Morganella morganii NCIMB 10466; conditions: sodium pyrophosphate 10 g/dl, nucleoside 2 g/dl, enzyme 50 units/dl, pH 4.0, 30° C., 3 hours
T3 construct: homo-oligomer; signal peptide removed
Experimental: (§2) Incidentally, in the reaction to produce nucleoside-5'-phosphate esters using nucleosides other than inosine as raw materials, the nucleosides as raw materials and produced nucleoside-5'-phosphate esters were analyzed by HPLC as described above.
Sodium pyrophosphate (10 g/dl) and inosine (2 g/dl) were dissolved in sodium acetate buffers each having pH of 5.5, 5.0, 4.5, 4.0, and 3.5, to which the enzyme sample described above was added so that a concentration of 50 units/dl was obtained. […] Produced inosinic acid contained only 5'-inosinic acid. By-production of 2'-inosinic acid and 3'-inosinic acid was not observed at all. The velocity of 5'-inosinic acid production was maximum at pH 5.0. However, the maximum accumulated amount of 5'-inosinic acid was higher at lower pH. The reaction condition at pH 4.0 was most efficient for production of 5'-inosinic acid, in which 5'-inosinic acid was produced and accumulated in an amount of 2.60 g/dl by performing the reaction for 3 hours.
(§3) The reaction mixture was incubated at 30° C. for 3 hours while maintaining pH at 4.0.

[6] = biological target: T4, acid phosphatase sample derived from Escherichia blattae (Shimwellia blattae, UniProt I2BB71); test: as above; type: biochemical, Escherichia blattae JCM 1650; conditions: sodium pyrophosphate 15 g/dl, enzyme 50 units/dl, 3 hours; for Produced amount of nucleoside-5'-ester: nucleoside 3 g/dl, pH 4.0, 35° C.
T4 construct: homo-oligomer; signal peptide removed
Experimental: as §2
Sodium pyrophosphate (15 g/dl) and inosine (3 g/dl) were dissolved in sodium acetate buffers each having pH of 5.5, 5.0, 4.5, 4.0, and 3.5, to which the enzyme sample described above was added so that a concentration of 50 units/dl was obtained. […] Produced inosinic acid contained only 5'-inosinic acid. By-production of 2'-inosinic acid and 3'-inosinic acid was not observed at all. The velocity of 5'-inosinic acid production was maximum at pH 5.0. However, the maximum accumulated amount of 5'-inosinic acid was higher at lower pH. The reaction condition at pH 4.0 was most efficient for production of 5'-inosinic acid. 5'-Inosinic acid was produced and accumulated in an amount of 1.56 g/dl by performing the reaction at 30° C. at pH 4.0 for 3 hours.
The reaction mixture was incubated at 35° C. for 3 hours while maintaining pH at 4.0.

[7] = biological target: T4, acid phosphatase sample derived from Escherichia blattae; test: Production of 5'-inosinic acid from various phosphate group donors by acid phosphatase sample; type: biochemical, Escherichia blattae JCM 1650; conditions: inosine 2 g/dl, phosphate group donor 10 g/dl, enzyme 50 units/dl, pH 4.0, 35° C., 3 hours
Experimental: The reaction miture was incubated at 35° C. for 3 hours while maintaining pH at 4.0.

[8] = system: Escherichia coli JM109/pEPI330; test: Production of 5'-inosinic acid from various phosphate group donors by microbial cells of the mutant strain; type: cell-based; conditions: inosine 6 g/dl, phosphate group donor 12 g/dl, cells 200 mg/dl dry weight, pH 4.0, 35° C., 32 hours
Text: (§4) 5'-Inosinic acid was efficiently produced and accumulated by using any of the phosphate group donors. However, the accumulated amount of 5'-inosinic acid was the highest when polyphosphoric acid was used as the phosphate group donor.

[9] = system: Escherichia coli JM109/pMPI530; test: as above; type: cell-based; conditions: inosine 6 g/dl, phosphate group donor 10 g/dl, cells 100 mg/dl dry weight, buffer pH 4.5, pH maintained at 4.0, 30° C., 22 hours
Text: as §4

[10] = biological target: T3, acid phosphatase sample derived from Morganella morganii; test: Production of 5'-inosinic acid from various phosphate group donors by acid phosphatase sample; type: biochemical, Morganella morganii NCIMB 10466; conditions: inosine 2 g/dl, phosphate group donor 10 g/dl, enzyme 50 units/dl, pH 4.0, 30° C., 3 hours
Experimental: as §3

[11] = Phosphomonoesterase activity (inosine produced by hydrolysis of 5'-inosinic acid); type: biochemical; conditions: purified Morganella morganii enzyme
Experimental: The phosphomonoesterase activity was measured under the following condition using 5'-inosinic acid as a substrate. The reaction was performed at 30° C. for 10 minutes in a reaction solution (1 ml) containing 10 μmol/ml of 5'-inosinic acid, 100 μmol/ml of MES/NaOH buffer (pH 6.0), and an enzyme. The reaction was stopped by adding 200 μl of 2 N hydrochloric acid. After that, precipitates were removed by centrifugation. Then, inosine produced by the hydrolytic reaction was quantitatively measured. An amount of enzyme to produce 1 μmol of inosine per 1 minute under this standard reaction condition was defined as 1 unit.
Inosine and 5'-inosinic acid were analyzed under the following condition by means of high-performance liquid chromatography (HPLC).

[12] = Properties of the purified acid phosphatase derived from Morganella morganii; parameters: species or system Morganella morganii NCIMB 10466
Experimental: A nutrient medium (pH 7.0, 50 ml) containing 1 g/dl of peptone, 0.5 g/dl of yeast extract, and 1 g/dl of sodium chloride was poured into Sakaguchi flasks (500 ml), which was sterilized at 120° C. for 20 minutes. A slant culture of Morganella morganii NCIMB 10466 was inoculated to each of the flasks once with a platinum loop, which was cultivated at 30° C. for 16 hours with shaking. Microbial cells (about 3,000 g), which were harvested from a culture by centrifugation, were suspended in 100 mM potassium phosphate buffer (1 L, pH 7.0). A ultrasonic treatment was performed at 4° C. for 20 minutes to disrupt the microbial cells. The treated suspension was centrifuged to remove its insoluble fraction. Thus a cell-free extract was prepared.
The purified enzyme had the following properties.

[13] = purified Morganella morganii enzyme
[14] = purified Escherichia blattae enzyme

Molecule: [Ag+2] [Ag^2+]
- Effect of the addition of metal ion and inhibitor on enzyme activity [1, 13]: inhibited
- Effect of the addition of metal ion and inhibitor on enzyme activity [2, 14]: inhibited

Molecule: [Cu+2] [Cu^2+]
- Effect of the addition of metal ion and inhibitor on enzyme activity [1, 13]: inhibited
- Effect of the addition of metal ion and inhibitor on enzyme activity [2, 14]: inhibited

Molecule: Nc1ccn([C@@H]2O[C@H](CO)[C@@H](O)[C@H]2O)c(=O)n1 [Cytidine, cytidine]
- Produced amount of nucleoside-5'-phosphate ester [3]: 6.60 g/dL
- Produced amount of nucleoside-5'-phosphate ester [4]: 7.82 g/dL
- Produced amount of nucleoside-5'-ester [5]: 0.98 g/dL
- Produced amount of nucleoside-5'-ester [6]: 1.22 g/dL

Molecule: NC(=O)OP(=O)([O-])[O-].[Na+].[Na+] [Disodium carbamyl phosphate, disodium carbamyl phosphate]
- Produced 5'-inosinic acid [7]: 1.53 g/dL
- Produced 5'-inosinic acid [8]: 7.73 g/dL
- Produced 5'-inosinic acid [9]: 9.89 g/dL
- Produced 5'-inosinic acid [10]: 2.54 g/dL

Molecule: O=P([O-])([O-])Oc1ccccc1.[Na+].[Na+] [Disodium phenylphosphate, disodium phenylphosphate]
- Produced 5'-inosinic acid [7]: 1.50 g/dL
- Produced 5'-inosinic acid [8]: 7.60 g/dL
- Produced 5'-inosinic acid [9]: 9.62 g/dL
- Produced 5'-inosinic acid [10]: 2.33 g/dL

Molecule: [Fe+2] [Fe^2+]
- Effect of the addition of metal ion and inhibitor on enzyme activity [2, 14]: inhibited

Molecule: Nc1nc2c(ncn2[C@@H]2O[C@H](CO)[C@@H](O)[C@H]2O)c(=O)[nH]1 [Guanosine, guanosine]
- Produced amount of nucleoside-5'-phosphate ester [3]: 4.77 g/dL
- Produced amount of nucleoside-5'-phosphate ester [4]: 6.72 g/dL
- Produced amount of nucleoside-5'-ester [5]: 1.90 g/dL
- Produced amount of nucleoside-5'-ester [6]: 1.05 g/dL

Molecule: [Hg+2] [Hg^2+]
- Effect of the addition of metal ion and inhibitor on enzyme activity [1, 13]: inhibited
- Effect of the addition of metal ion and inhibitor on enzyme activity [2, 14]: inhibited

Molecule: OC[C@H]1O[C@@H](n2cnc3c(O)ncnc32)[C@H](O)[C@@H]1O [Inosine, inosine]
- Produced amount of nucleoside-5'-phosphate ester [3]: 7.45 g/dL
- Produced amount of nucleoside-5'-phosphate ester [4]: 10.01 g/dL
- Produced amount of nucleoside-5'-ester [5]: 2.60 g/dL
- 5'-inosinic acid produced and accumulated ([6]; inosine 3 g/dl, pH 4.0, 30° C.): 1.56 g/dL
- Produced amount of nucleoside-5'-ester [6]: 1.56 g/dL

Molecule: [Pb+2] [Pb^2+]
- Effect of the addition of metal ion and inhibitor on enzyme activity [1, 13]: inhibited
- Effect of the addition of metal ion and inhibitor on enzyme activity [2, 14]: inhibited

Molecule: O=P(O)(O)OP(=O)(O)OP(=O)(O)O [Sodium tripolyphosphate, sodium tripolyphosphate]
- Produced 5'-inosinic acid [7]: 1.20 g/dL
- Produced 5'-inosinic acid [8]: 5.96 g/dL
- Produced 5'-inosinic acid [9]: 8.93 g/dL
- Produced 5'-inosinic acid [10]: 2.10 g/dL

Molecule: O=c1ccn([C@@H]2O[C@H](CO)[C@@H](O)[C@H]2O)c(=O)[nH]1 [Uridine, uridine]
- Produced amount of nucleoside-5'-phosphate ester [3]: 8.93 g/dL
- Produced amount of nucleoside-5'-phosphate ester [4]: 11.90 g/dL
- Produced amount of nucleoside-5'-ester [5]: 1.30 g/dL
- Produced amount of nucleoside-5'-ester [6]: 1.87 g/dL

Molecule: O=C(O)CI [iodoacetic acid]
- Effect of the addition of metal ion and inhibitor on enzyme activity [1]: inhibited
- Effect of the addition of metal ion and inhibitor on enzyme activity [2]: inhibited

Molecule: sodium polyphosphate
- Produced 5'-inosinic acid [7]: 1.79 g/dL
- Produced 5'-inosinic acid [8]: 8.84 g/dL
- Produced 5'-inosinic acid [9]: 11.45 g/dL
- Produced 5'-inosinic acid [10]: 2.72 g/dL

B1: acid phosphatase derived from Morganella morganii: enzyme purified from cell-free extract of Morganella morganii NCIMB 10466; mature protein SEQ ID NO: 4 (protein)
chain: T1 sequence (P28581 21-249)
- phosphate ester hydrolytic activity (phosphomonoestrase activity) relative to transphosphorylation activity [11]: not less than 20 times
- Optimum temperature [12]: about 35 °C
- Optimum pH ([12]; phosphate ester hydrolytic reaction): 6.5
- Optimum pH ([12]; transphosphorylation reaction): 5.2
- Temperature stability ([12]; treatment at pH 7.0 for 30 minutes): up to 30 °C
